A short description of series [1]: Cytotoxicity against Chinese hamster V79 cells assessed as reduction in cell viability. To be noted: read-out: LC50 (the source's name). The format is toxicity, cell-based, Cricetulus griseus.
A short description of series [2]: Tmax in Sprague-Dawley rat at 25 mg/kg, po measured up to 24 hrs by LC-MS analysis. The following applies: in vivo. The format is ADME, organism-based.
Series [3] can be described thus: Selectivity ratio of IC50 for inhibition of human CYP11B2 to IC50 for inhibition of human CYP11B1. The format is ADME.
The nature of series [4]: Terminal half life in Sprague-Dawley rat at 25 mg/kg, po measured up to 24 hrs by LC-MS analysis. To be noted: in vivo, read-out: beta t1/2 (converted). The format is ADME, organism-based.
Series [5] deals with T1, Cytochrome P450 11B2, mitochondrial (Homo sapiens, UniProt P19099).
T1 sequence (P19099 whole entry): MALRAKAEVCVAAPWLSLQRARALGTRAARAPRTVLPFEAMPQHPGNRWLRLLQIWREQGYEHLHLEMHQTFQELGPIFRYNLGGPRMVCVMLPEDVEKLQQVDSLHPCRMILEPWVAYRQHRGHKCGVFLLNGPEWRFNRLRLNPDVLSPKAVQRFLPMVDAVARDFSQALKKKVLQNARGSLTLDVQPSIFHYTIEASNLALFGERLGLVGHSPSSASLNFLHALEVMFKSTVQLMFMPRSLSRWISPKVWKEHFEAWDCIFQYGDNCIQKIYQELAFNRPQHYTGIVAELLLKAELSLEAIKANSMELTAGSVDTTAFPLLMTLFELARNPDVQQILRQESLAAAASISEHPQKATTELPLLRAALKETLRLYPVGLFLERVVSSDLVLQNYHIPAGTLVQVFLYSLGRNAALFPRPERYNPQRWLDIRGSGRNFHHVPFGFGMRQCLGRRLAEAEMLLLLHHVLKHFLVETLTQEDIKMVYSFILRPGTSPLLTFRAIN
The series can be described thus: Inhibition of human CYP11B2 expressed in Chinese hamster V79 MZh cells using [14C]-deoxycorticosteron as substrate measured after 6 hrs by phosphoimager analysis. The format is ADME, cell-based.

Series [6] is described as follows: Terminal half life in Sprague-Dawley rat at 5 mg/kg, iv measured up to 24 hrs by LC-MS analysis. It counts as ADME, organism-based. The following applies: in vivo, read-out: beta t1/2 (converted).
Series [7] can be described thus: AUC (0 to infinity) in Sprague-Dawley rat at 25 mg/kg, po measured up to 24 hrs by LC-MS analysis. The format is ADME, organism-based. The arrangement: dose 25 mg/kg, time < 24 hrs, route po. The following applies: in vivo.
Series [8] has as its target T2, Cytochrome P450 11B1, mitochondrial (Rattus norvegicus, UniProt P15393).
T2 sequence (P15393 whole entry): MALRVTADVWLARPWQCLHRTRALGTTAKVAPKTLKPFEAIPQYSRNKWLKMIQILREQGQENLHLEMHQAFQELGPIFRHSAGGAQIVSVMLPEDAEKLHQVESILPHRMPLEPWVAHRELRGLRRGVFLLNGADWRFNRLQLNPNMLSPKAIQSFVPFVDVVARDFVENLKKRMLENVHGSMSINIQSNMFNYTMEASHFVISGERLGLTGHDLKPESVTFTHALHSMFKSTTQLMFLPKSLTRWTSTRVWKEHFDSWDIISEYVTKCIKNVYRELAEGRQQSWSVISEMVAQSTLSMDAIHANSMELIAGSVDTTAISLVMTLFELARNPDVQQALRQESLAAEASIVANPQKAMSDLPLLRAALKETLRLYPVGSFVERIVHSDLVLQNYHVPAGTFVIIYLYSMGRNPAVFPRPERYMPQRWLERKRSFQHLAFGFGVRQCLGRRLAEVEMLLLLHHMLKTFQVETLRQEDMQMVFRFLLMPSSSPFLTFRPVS
As to the kind of experiment: Inhibition of rat CYP11B1. The format is ADME.

For the next series, the target named is Cytochrome P450 2C19 (Homo sapiens, UniProt P33261). The series can be described thus: Inhibition of human hepatic recombinant CYP2C19 using cocktail of substrate by LC-MS/MS analysis. The format is ADME.

Each structure is given as a SMILES string.

Cytochrome P450 2C19, sequence (P33261 whole entry): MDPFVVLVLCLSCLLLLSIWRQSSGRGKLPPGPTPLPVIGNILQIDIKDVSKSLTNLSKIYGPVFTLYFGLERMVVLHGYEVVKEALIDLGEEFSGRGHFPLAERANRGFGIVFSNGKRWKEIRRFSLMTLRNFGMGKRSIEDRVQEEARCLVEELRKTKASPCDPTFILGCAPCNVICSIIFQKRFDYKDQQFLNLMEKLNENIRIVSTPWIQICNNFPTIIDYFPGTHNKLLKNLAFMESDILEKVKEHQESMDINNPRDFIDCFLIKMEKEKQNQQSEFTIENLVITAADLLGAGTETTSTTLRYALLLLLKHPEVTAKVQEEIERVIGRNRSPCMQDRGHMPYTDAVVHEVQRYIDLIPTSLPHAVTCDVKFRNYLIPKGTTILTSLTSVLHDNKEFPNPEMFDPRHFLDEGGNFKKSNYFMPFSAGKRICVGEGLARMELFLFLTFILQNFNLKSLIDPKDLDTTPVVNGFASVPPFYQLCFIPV

Usually Tmax stands for the time at which the peak concentration occurs. What is called IC50 is the concentration at which inhibition is half-maximal. In general, AUC(0-inf) refers to total exposure, with the tail of the curve extrapolated. A lower AUC(0-inf) goes with low exposure. In the case of `O=C(Nc1ccc2[nH]ncc2c1)[C@]12ON=C(c3cccnc3)[C@H]1[C@@H]1CC[C@H]2C1`, the CC50 in series [1] was more than 50000 nM. For the same molecule, the Tmax in series [2] came to 4.2 h. The “Ratio IC50” value in series [3] is on record as 125. The half-life in series [4] is 4.6 h; in [6], 4.5 h. The figures for the IC50 (in series [5]; in [8]; on Cytochrome P450 2C19) were 1120 nM, 25 nM and more than 10000 nM, respectively. Also, the AUC(0-inf) in series [7] turned out to be 54500 ng·h/mL.
